Test results from ChEMBL document CHEMBL3351459, “Present status of quinoxaline motifs: excellent pathfinders in therapeutic medicine” (Eur J Med Chem, 2014).
Converted amounts (≈) assume the structure as drawn.

Experiments:
[1] = tested on: Mycobacterium tuberculosis; assay: Antimycobacterial activity against Mycobacterium tuberculosis H37Rv; format: functional
Candida = assay: Antifungal activity against Candida assessed as growth inhibition; format: functional
[2] = tested on: Human immunodeficiency virus 1; assay: Antiviral activity against HIV1 3B infected in human MT4 cells assessed as inhibition of virus-induced cytopathic effect after 5 days by MTT assay; format: functional, organism-based; details: Human immunodeficiency virus 1, 3B, MT4, 120 h
[3] = Cytotoxicity against human MT4 cells assessed as reduction cell viability after 5 days by MTT assay; format: cell-based
T47D = assay: Cytotoxicity against human T47D cells; format: functional, cell-based
[4] = Cytotoxicity against human HCT15 cells; format: functional, cell-based; details: HCT-15
MDA-MB-468 = assay: Cytotoxicity against human MDA-MB-468 cells; format: functional, cell-based
[5] = Cytotoxicity against human SKOV3 cells; format: functional, cell-based; details: SK-OV-3
Trichomonas vaginalis = assay: […] activity against Trichomonas vaginalis assessed as growth inhibition after 24 hrs; format: functional
Plasmodium falciparum = assay: Antimalarial activity against Plasmodium falciparum; format: functional, organism-based
Leishmania infantum [6] = assay: Antileishmanial activity against Leishmania infantum; format: functional, organism-based
Leishmania amazonensis = assay: Antileishmanial activity against Leishmania amazonensis; format: functional, organism-based
Leishmania infantum [7] = assay: Leishmanicidal activity against Leishmania infantum; format: functional, organism-based
[8] = tested on: Human immunodeficiency virus 1; assay: Antiviral activity against Human immunodeficiency virus 1; format: functional, organism-based
Rattus norvegicus = assay: Anti-inflammatory activity in Wistar rat at 100 mg/kg assessed as protection against edema formation dosed 1 hr before carrageenan challenge measured at end of 3rd hr by plethysmography; format: functional
SRSF protein kinase 1 = SRSF protein kinase 1 (Homo sapiens, UniProt Q96SB4); assay: Inhibition of SRPK1 kinase (unknown origin)
[9] = Drug elimination in pig at 50 ppm; format: ADME, organism-based, Sus scrofa; details: in vivo, read-out: Drug excretion
[10] = Primary phase half life in im dosed goat; format: ADME, organism-based, Capra hircus; details: in vivo, read-out: alphat1/2 (converted)
[11] = Elimination half life in iv dosed rat; format: ADME, organism-based; details: in vivo, read-out: beta t1/2 (converted)
[12] = Elimination half life in iv dosed dog; format: ADME, organism-based, Canis lupus familiaris; details: in vivo, read-out: beta t1/2 (converted)
[13] = Drug elimination in human patient kidney at starting dose of 9 mg/m2 administered as 5 or 20 mins intravenous infusion on days 1 to 5 every 21 days; format: ADME; details: urine, read-out: Drug excretion

Sequence of SRSF protein kinase 1 (Q96SB4 whole entry): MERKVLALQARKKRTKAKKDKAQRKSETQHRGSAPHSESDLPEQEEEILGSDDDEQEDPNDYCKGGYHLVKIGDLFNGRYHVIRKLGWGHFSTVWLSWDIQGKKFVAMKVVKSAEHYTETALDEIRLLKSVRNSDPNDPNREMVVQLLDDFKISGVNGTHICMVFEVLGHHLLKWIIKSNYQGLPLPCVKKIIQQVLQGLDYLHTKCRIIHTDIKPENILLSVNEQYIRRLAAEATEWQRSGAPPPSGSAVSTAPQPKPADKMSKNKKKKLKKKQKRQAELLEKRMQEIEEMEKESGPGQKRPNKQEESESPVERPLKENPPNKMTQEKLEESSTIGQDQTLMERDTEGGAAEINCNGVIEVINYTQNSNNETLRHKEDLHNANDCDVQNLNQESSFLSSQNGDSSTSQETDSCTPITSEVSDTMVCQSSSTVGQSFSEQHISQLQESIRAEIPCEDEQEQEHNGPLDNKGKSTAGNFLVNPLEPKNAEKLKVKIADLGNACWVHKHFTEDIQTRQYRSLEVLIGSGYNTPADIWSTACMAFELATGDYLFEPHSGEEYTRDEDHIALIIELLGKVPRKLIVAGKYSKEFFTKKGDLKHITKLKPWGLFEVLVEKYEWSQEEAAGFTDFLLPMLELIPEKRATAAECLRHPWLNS

Cc1c(C(=O)Nc2ccccc2)[n+]([O-])c2cc(Cl)c(Cl)cc2[n+]1[O-]
IC90 [1]: < 6.25 µg/mL

O=c1[nH]c2cc3cccnc3c(Cl)c2nc1CBr
MIC (Candida): 31.2 µg/mL (≈ 96.3 µM)

N#Cc1c(Nc2ccc(F)cc2)[n+]([O-])c2ccc(Cl)cc2[n+]1[O-]
IC90 [1]: < 6.25 µg/mL

c1ccc(-c2nc3ccccc3nc2-c2ccccc2)cc1
IC50 [2]: 3.84 µg/mL (≈ 13.6 µM) | CC50 at 120 h [3]: 15.3 µg/mL (≈ 54.1 µM)

CCCCCNCc1ccc2c(c1)C(=O)c1nccnc1C2=O
IC50 (T47D): 0.08 µM | IC50 [4]: 0.05 µM | IC50 (MDA-MB-468): 0.2 µM | IC50 [5]: 0.4 µM

Cc1c(NCc2ccc(Cl)c(Cl)c2)[n+]([O-])c2cc(F)c(F)cc2[n+]1[O-]
MIC (Trichomonas vaginalis): 6.25 µg/mL (≈ 16.2 µM)

[O-][n+]1c(Cl)c(OC2CCCCC2)nc2ccc(F)cc21
IC50 (Plasmodium falciparum): 4.1 µM

CCCNC(=O)c1c(C)[n+]([O-])c2ccc(Cl)cc2[n+]1[O-]
IC90 [1]: < 0.19 µg/mL

N#Cc1c(NC(=O)C2CCCCC2)[n+]([O-])c2ccc(Cl)cc2[n+]1[O-]
IC50 (Leishmania infantum [6]): 2.5 µM

N#Cc1c(NC(=O)CCCCl)[n+]([O-])c2ccc(Cl)cc2[n+]1[O-]
IC50 (Leishmania amazonensis): 0.7 µM

N#Cc1c(NC(=O)N2CCN(c3ccc(C(F)(F)F)cc3)CC2)[n+]([O-])c2ccc(Cl)cc2[n+]1[O-]
IC50 (Leishmania infantum [7]): 5.7 µM

C=CCCCOc1cnc2cc(C)c(C)cc2n1
EC50 [8]: 0.22 µg/mL (≈ 0.908 µM)

Cc1cc2ncc(=O)n(CC(O)CO)c2cc1C (centres undefined)
EC50 [8]: 0.15 µg/mL (≈ 0.604 µM)

Cc1nc2ccccc2nc1OCC(=O)N/N=C/c1ccc(Cl)cc1
inhibition in vivo at 100 mg/kg (Rattus norvegicus): 65.9%

O=C(O)c1ccc2cc3nc(-c4cccs4)c(-c4cccs4)nc3cc2c1
IC50 (SRSF protein kinase 1): 0.04 µM

COC(=O)N/N=C/c1c[n+]([O-])c2ccccc2[n+]1[O-] [CARBADOX]
dose excreted [9]: 90%

CC(=O)c1c(C)[n+]([O-])c2ccccc2[n+]1[O-] [MEQUINDOX]
half-life [10]: 0.28 h

C[C@@H](Oc1ccc(Oc2cnc3ccc(Cl)cc3n2)cc1)C(=O)O [R(+)XK469]
half-life [11]: 13.5 h | half-life [12]: 13.2 h | dose excreted [13]: 7%
